The text below walks through data of PubChem BioAssay AID2423 (Broad Institute, 2010).

Results filed as inconclusive are left out. Activity calls are given as the source filed them. No rule for the calls is given here.

The test system of this assay is C. albicans CaCi-8 + fluconazole, Alamar Blue growth, 48 h. Description: resistant C. albicans growth inhibition with fluconazole, dose response, CaCi-8 strain, Alamar Blue fluorescence (AID 2423). (In general: Alamar Blue is a resazurin reagent that responds to reducing activity.)

Take `Oc1c(C(c2ccc(Cl)cc2)N2CCCC2)cc(Cl)c2cccnc12` (stereo not given): the EC50 (in general, the concentration needed to bring the measured effect to its halfway point) was 686 nM.

As to `COc1cc(C(=O)NC(=S)N(CCc2ccccc2)CCc2ccccc2)cc(OC)c1OC`, the EC50 was 1820 nM.

Take `Nc1nonc1-n1nnc(C(=O)N/N=C/c2cc(Cl)ccc2O)c1CN1CCCCCC1`: the EC50 was 1820 nM.

For the compound `N#C/C(=N/Nc1ccc(OC(F)(F)F)cc1)C(N)=S`, the EC50 was > 15000 nM (inactive).

With `Cc1ccc(OCC(=O)NNC(=S)NC(=O)C2CC2)c(C)c1`, the EC50 is 830 nM.

Take `Cc1ccc(-c2nc(-c3cccnc3)no2)c(C)c1`: the EC50 is 10500 nM.

On to `CC(c1ccccc1)N1CCn2c(nc3cc(NS(C)(=O)=O)ccc32)C1` (stereo not given), for which the EC50 was > 16000 nM (inactive).

As for `CN=c1scc(-c2cccs2)n1/N=C/c1ccc(O)c(O)c1O`, the EC50 is 14500 nM.

On to `COc1ccc(NC(=O)NC(C)c2ccccc2)cc1` (stereo not given), for which the EC50 was > 16000 nM (inactive).

For the compound `S=C(NCCN1CCOCC1)NC1CCCC1`, the EC50 was > 15000 nM (inactive).

For the compound `O=[N+]([O-])CC(c1ccccc1)P(=O)(c1ccccc1)c1ccccc1` (stereo not given), the concentration for a half-maximal effect (EC50) was 1890 nM.

In the case of `CN(C)S(=O)(=O)Oc1cccc(C(=O)Nc2ccc(Cl)cc2)c1`, the EC50 was 2970 nM.

On to `CCOCCCNC(=O)c1ccc(N(C)S(=O)(=O)c2ccc(OC)cc2)cc1`, for which the EC50 is > 16000 nM (inactive).

Take `CC(Nc1ncnc2ccccc12)c1ccccc1` (stereo not given): the EC50 was 606 nM.

In the case of `O=c1c(Cl)c(NCCCO)cnn1-c1nc2ccccc2[nH]1`, the EC50 was > 15000 nM (inactive).

On to `COc1ccc(-c2cc(-c3c(O)c(OC)c4occc4c3OC)[nH]n2)cc1`, for which the EC50 is > 15000 nM (inactive).

As to `O=C(/C=C/c1ccc([N+](=O)[O-])o1)NNC(=O)c1ccc(F)cc1`, the EC50 was 1190 nM.

In the case of `CCC(=O)NC(c1ccc(OC)cc1)c1cc(Cl)c2cccnc2c1O` (stereo not given), the concentration giving a half-maximal response (EC50) is 976 nM.

On to `CC(OC(=O)c1oc2ccccc2c1COc1ccccc1)C(N)=O` (stereo not given), for which the EC50 was > 16000 nM (inactive).

With `O=C(NCc1ccc(F)cc1)C(c1ccccc1)N(CC1CCCO1)C(=O)Cn1nnc2ccccc21` (stereo not given), the EC50 is 1160 nM.

As to `O=C1C2CCN(CC2)C1Cc1ccc(OCc2ccccc2)cc1` (stereo not given), the EC50 was 2190 nM.

With `O=C(CNc1ccc2ccccc2c1)N/N=C/c1ccc([N+](=O)[O-])o1`, the EC50 is 1280 nM.

Regarding `CCOc1ccc(C(Nc2cccnc2)c2cc(Cl)c3cccnc3c2O)cc1` (stereo not given), the EC50 was 930 nM.

Take `O=C(/C=C\c1ccc(-c2cccc([N+](=O)[O-])c2)o1)N1CCOCC1`: the concentration giving a half-maximal response (EC50) was 3100 nM.

With `COc1cccc(N=Nc2ccc3cccnc3c2O)c1`, the EC50 was 430 nM.

Regarding `O=C(Nc1nc(=O)c2ccccc2s1)c1ccc(Cl)cc1`, the EC50 was > 15000 nM (inactive).

`CC(C)CCNCC(=O)NC(c1ccccc1)c1ccccc1`: the EC50 is > 16000 nM (inactive).

On to `CCN1/C(=C/c2cccc[n+]2C)Sc2ccc(OC)cc21`, for which the EC50 was 10700 nM.

As for `CCOC(=O)C1CCN(C(=O)c2ccc3c(=O)n4nc(Nc5cc(C)ccc5C)sc4nc3c2)CC1`, the EC50 is 400 nM.

In the case of `CCC(=O)NC(c1ccc(Cl)cc1Cl)c1ccc2cccnc2c1O` (stereo not given), the EC50 was 714 nM.

Turning to `O=C(NC1CCCCC1)C(c1ccc2ncccc2c1)N(Cc1ccc(F)cc1)C(=O)c1ccc2c(c1)OCCO2` (stereo not given), the EC50 was > 15000 nM (inactive).

For the compound `CCc1ccc(-c2csc3ncn(Cc4ccc(C(=O)O)cc4)c(=O)c23)cc1`, the concentration for a half-maximal effect (EC50) is 954 nM.

With `COc1ccc(C(c2c(O)ccc3ccccc23)N2CCOCC2)c(OC)c1` (stereo not given), the EC50 was 2850 nM.

Regarding `O=C(N/N=C/c1cc(Br)c(Br)o1)c1ccc2c(c1)OCCO2`, the EC50 is 643 nM.

On to `CCCC(=O)NC(c1ccc(Cl)cc1)c1ccc2cccnc2c1O` (stereo not given), for which the EC50 is 543 nM.

As to `CC(C)(C)c1nnc(NC(=O)CCS(=O)(=O)c2ccccc2)s1`, the EC50 is 943 nM.

As to `O=C(Nc1nnc(-c2ccncc2)o1)c1ccc2ccccc2c1`, the EC50 was 1440 nM.

For `COc1cccc(F)c1C(C[N+](=O)[O-])c1c(N)n(C)c(=O)n(C)c1=O` (stereo not given), the concentration for a half-maximal effect (EC50) is 1660 nM.

On to `O=C(N/N=C/c1ccc(O)cc1O)c1ccc(CN2C(=O)c3cccc4cccc2c34)cc1`, for which the EC50 is 709 nM.

Turning to `Clc1ccc(CONc2ncnc3nonc23)c(Cl)c1`, the EC50 was 328 nM.

Regarding `O=C(Nc1nnc(-c2ccccc2)o1)c1cc(-c2cccs2)nc2ccccc12`, the EC50 is 901 nM.

For `CCN(CC)c1nc(-c2ccccn2)nc(-c2ccccc2)c1C#N`, the EC50 is 4190 nM.

For `Oc1c(CN2CCOCC2)cc(COCc2ccccc2)c2cccnc12`, the EC50 is 963 nM.

For the compound `Cn1c(N2CCOCC2)c(/C=N/OC(=O)c2ccc(F)cc2)c2ccccc21`, the EC50 is 630 nM.

On to `CCc1ccc(CNC(=O)CCC(=O)N2Cc3cccc(OC)c3Oc3ncccc32)cc1`, for which the EC50 is > 16000 nM (inactive).

Regarding `COc1ccc(OC)c(C2C(C(=O)c3cc4ccccc4o3)=C(O)C(=O)N2c2cc(C)on2)c1` (stereo not given), the EC50 was under 120 nM.

Take `Oc1c(CN2CCc3ccccc3C2)cc(Cl)c2cccnc12`: the EC50 is 849 nM.

Regarding `C=CCN(CC=C)Cc1c(O)ccc2c(=O)c(-c3ccccc3)coc12`, the concentration for a half-maximal effect (EC50) is under 120 nM.

With `O=C(N/N=C/c1sc(N2CCOCC2)nc1-c1ccccc1)c1cccc(S(=O)(=O)N2CCCC2)c1`, the EC50 was 2160 nM.

Regarding `CCCCCCC[n+]1ccc(-c2cc[n+](CCCCCCC)cc2)cc1`, the EC50 was under 120 nM.

For the compound `CC(=O)Nc1ccc(N2CCCCC2)c(C(=O)Nc2cccc(C)c2)c1`, the EC50 was > 16000 nM (inactive).

`O=C1NC(=O)/C(=C/c2ccccc2Oc2ccc(Cl)cc2)S1`: the EC50 is > 16000 nM (inactive).

On to `CCC(C)(C)c1ccc(OCCCC[n+]2cccc(C)c2C)c(C(C)(C)CC)c1`, for which the EC50 is > 16000 nM (inactive).

Turning to `Cc1[nH]n(C(N)=S)c(=O)c1N=Nc1ccc(S(=O)(=O)N2CCCCCC2)cc1`, the EC50 is 9480 nM.

As to `C[C@@H]1CC[C@@]2(NC1)O[C@H]1C[C@H]3[C@@H]4CC=C5C[C@@H](O)CC[C@]5(C)[C@H]4CC[C@]3(C)[C@H]1[C@@H]2C`, the half-maximal effective concentration (EC50) was 132 nM.

Regarding `Cc1ccccc1/C=C1\SC(=S)N(/N=C/c2cc([N+](=O)[O-])ccc2O)C1=O`, the EC50 is 4060 nM.

Take `COc1ccc(C[C@H]2NC[C@H](O)[C@H]2OC(C)=O)cc1`: the EC50 was 1480 nM.

Turning to `CC(C)CCOc1cccc(OCC(=O)Nc2ccncc2)c1`, the EC50 is 3220 nM.

Regarding `Cc1cccc(N=Nc2c(C)[nH]n(C(N)=S)c2=O)c1C`, the EC50 was 944 nM.

For `CCn1c(NN=O)nc2ccccc21`, the EC50 is 7380 nM.

For `Cc1ccc(-n2c(O)c(C=Nc3ccccc3-c3n[nH]c(=S)[nH]c3=O)c3ccccc3c2=O)cc1C`, the 50% effective concentration (EC50) is 496 nM.

In the case of `CCCCOc1cccc(C2C(C(=O)c3ccc(C)o3)=C(O)C(=O)N2Cc2ccco2)c1` (stereo not given), the half-maximal effective concentration (EC50) is 394 nM.

Regarding `CCc1ccc(C2c3[nH]c4ccccc4c3CCN2C(=O)c2ccc(=O)n(C)n2)cc1` (stereo not given), the EC50 is 339 nM.

Consider `Cc1cc(/C=N/NC(N)=S)c(C)n1-c1cccc(Cl)c1`, for which the EC50 was 1650 nM.

Take `CCOc1ccc(NC(=O)NNC(=O)c2ccc3ccccc3c2O)cc1`: the EC50 is 2460 nM.

Turning to `CNC(=S)N/N=C/c1ccc(-c2ccc(Cl)c([N+](=O)[O-])c2)o1`, the concentration for a half-maximal effect (EC50) was 1940 nM.

With `Cc1cccc(N2CCN(c3nc(C)cc(C)c3C#N)CC2C)c1` (stereo not given), the EC50 was > 16000 nM (inactive).

In the case of `CC(=O)c1cccc(NC(=S)NC(=O)c2ccc(C)cc2)c1`, the EC50 is 3850 nM.

As to `CC1CCN(Cc2c(C(=O)N/N=C/c3cc(Cl)ccc3O)nnn2-c2nonc2N)CC1`, the EC50 was 693 nM.

As for `Cc1ccsc1C(=O)OCC(=O)Nc1sccc1C(N)=O`, the half-maximal effective concentration (EC50) is 866 nM.

Turning to `C/C(=N\NC(=O)c1cc(-c2cccs2)nc2ccccc12)c1ccccn1`, the EC50 was 1820 nM.

For the compound `Clc1ccccc1C(c1ccccc1)(c1ccccc1)n1ccnc1`, the EC50 was 133 nM.

`COc1ccc(OC)c(NC(=O)C(=O)/C=C(\O)c2cc(OC)ccc2OC)c1`: the EC50 was > 15000 nM (inactive).

As for `Cc1cccc(C(=O)NC(=S)NNC(=O)Cc2ccccc2)c1`, the EC50 is 10600 nM.

In the case of `COc1cc(OC)cc(C(=O)NNC(=O)Cc2ccc(OC)c(S(=O)(=O)N3CCOCC3)c2)c1`, the EC50 was > 15000 nM (inactive).

`CCOC(=O)N1CCN(Cc2cc(Cl)c3cccnc3c2O)CC1`: the EC50 was 1910 nM.

Take `O=C1c2ccccc2NC(c2ccc(-c3cccc(Cl)c3)o2)N1O` (stereo not given): the EC50 is 2000 nM.

Turning to `O=C(Nc1ccc(N=Nc2ccccc2)c(NC(=O)C2CCCO2)c1)C1CCCO1` (stereo not given), the EC50 is 4770 nM.

Take `CCOc1cc(/C=C2\SC(=S)N(NS(=O)(=O)c3ccccc3)C2=O)ccc1O`: the EC50 was 2020 nM.

For the compound `COc1ccc2c(c1)/C(=C/c1cnc[nH]1)C(=O)N2`, the concentration for a half-maximal effect (EC50) is 1250 nM.

`O=C(CC1CC2CCC1C2)Nc1nc(-c2ccccn2)cs1` (stereo not given): the EC50 is 641 nM.

With `CCOC(=O)c1ccc(Oc2nc(NC(C)(C)C)nc(N(C)C)n2)cc1`, the EC50 was 13300 nM.

Take `CCCCC(=O)NNC(=S)NC(=O)C(c1ccccc1)c1ccccc1`: the EC50 was 1720 nM.

For the compound `Oc1ccc(N=Nc2ccccc2C(F)(F)F)c2cccnc12`, the EC50 is 1080 nM.

`CC(C)(C)c1ccc(OCc2ccc(C(=O)N/N=C/c3ccc(O)c(O)c3)cc2)cc1`: the EC50 is 3080 nM.

`O=c1c2ccc(Cl)cc2nc(-c2cccc(C(F)(F)F)c2)n1O`: the EC50 is 832 nM.

With `COc1ccc(-c2csc(-c3ccccc3)n2)c(OC)c1`, the EC50 was 3810 nM.

As for `CSc1cnc2c(N)nc(N(C)C)nc2n1`, the concentration giving a half-maximal response (EC50) was 12400 nM.

For `Cc1ccc(/C=C2\SC(=S)N(/N=C/c3cc([N+](=O)[O-])ccc3O)C2=O)o1`, the concentration for a half-maximal effect (EC50) was 3330 nM.

On to `O=C(Nc1ccc(F)c(Cl)c1)NC1CC1`, for which the EC50 is 1490 nM.

Consider `Cc1[nH]n(-c2ccccc2)c(=O)c1/C=N/Nc1nncc(-c2ccccc2)n1`, for which the EC50 was 2670 nM.

For the compound `Cc1nc(NC(=O)c2c(-c3ccccc3)noc2C)sc1C(=O)N(C)C`, the EC50 was 16300 nM.

Take `Oc1c(C(c2ccccn2)N2CCC(Cc3ccccc3)CC2)cc(Cl)c2cccnc12` (stereo not given): the EC50 is 1880 nM.

Regarding `O=C(CCCCCN1C(=O)c2cccc3cccc(c23)C1=O)N1CCOCC1`, the EC50 is > 15000 nM (inactive).

As to `CCCNC(=O)C12CCC(C)(c3nc4cc(C)c(C)cc4nc31)C2(C)C` (stereo not given), the EC50 was > 15000 nM (inactive).
